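Interpolation was linear, between the two tested concentrations surrounding the appropriate level; five concentrations were tested over 48 hours in 96-well plates. At the GI50, growth is halved.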 Calls of active or inactive are those of the source. No stated cut-off is given here; in the data, active = GI50 up to about 1.1 µM and inactive = higher.
Assays:
Assay in all cases: NCI tumour cell line growth inhibition, 48 h
OVCAR-8 = tested on: OVCAR-8
HCT-15 = tested on: HCT-15
MDA-MB-435 = tested on: MDA-MB-435
RXF 393 = tested on: RXF 393
SR = tested on: SR
COLO 205 = tested on: COLO 205
OVCAR-4 = tested on: OVCAR-4
OVCAR-3 = tested on: OVCAR-3
UO-31 = tested on: UO-31
RPMI-8226 = tested on: RPMI-8226
DU-145 = tested on: DU-145
SN12C = tested on: SN12C
SNB-19 = tested on: SNB-19
SK-MEL-5 = tested on: SK-MEL-5
HOP-62 = tested on: HOP-62
SF-295 = tested on: SF-295
SK-MEL-28 = tested on: SK-MEL-28
CCRF-CEM = tested on: CCRF-CEM
A549 = tested on: A549
A498 = tested on: A498
K562 = tested on: K562
786-0 = tested on: 786-0
NCI-H23 = tested on: NCI-H23
T47D = tested on: T47D
HT-29 = tested on: HT-29
PC-3 = tested on: PC-3
MDA-MB-231 = tested on: MDA-MB-231
SNB-75 = tested on: SNB-75
KM12 = tested on: KM12
HCC 2998 = tested on: HCC 2998
ACHN = tested on: ACHN
HCT-116 = tested on: HCT-116
SF-539 = tested on: SF-539
IGROV-1 = tested on: IGROV-1
MDA-N = tested on: MDA-N
BT-549 = tested on: BT-549
UACC-62 = tested on: UACC-62
EKVX = tested on: EKVX
NCI-H226 = tested on: NCI-H226
OVCAR-5 = tested on: OVCAR-5
U-251 = tested on: U-251
MCF7 = tested on: MCF7
HOP-92 = tested on: HOP-92
CAKI-1 = tested on: CAKI-1
LOX IMVI = tested on: LOX IMVI
M14 = tested on: M14
SW-620 = tested on: SW-620
NCI-H460 = tested on: NCI-H460
UACC-257 = tested on: UACC-257
MOLT-4 = tested on: MOLT-4
NCI/ADR-RES = tested on: NCI/ADR-RES
SF-268 = tested on: SF-268
SK-OV-3 = tested on: SK-OV-3
SK-MEL-2 = tested on: SK-MEL-2
NCI-H522 = tested on: NCI-H522
Hs-578T = tested on: Hs-578T
HL-60 = tested on: HL-60

Measured: GI50

Cc1cc2c(C)cc(=O)[nH]c2cc1N
> 100 µM: HCT-15
inactive: OVCAR-8 > 100 µM | MDA-MB-435 > 100 µM | RXF 393 > 100 µM | SR > 100 µM | COLO 205 60.1 µM | OVCAR-4 > 100 µM | OVCAR-3 > 100 µM | UO-31 > 100 µM | RPMI-8226 > 100 µM | DU-145 > 100 µM | SN12C > 100 µM | SNB-19 > 100 µM | SK-MEL-5 > 100 µM | HOP-62 > 100 µM | SF-295 > 100 µM | SK-MEL-28 > 100 µM | CCRF-CEM > 100 µM | A549 > 100 µM | A498 > 100 µM | K562 > 100 µM | 786-0 > 100 µM | NCI-H23 > 100 µM | T47D > 100 µM | HT-29 81.1 µM | PC-3 34.8 µM | MDA-MB-231 46.9 µM | SNB-75 84.3 µM | KM12 > 100 µM | HCC 2998 61.4 µM | ACHN > 100 µM | HCT-116 > 100 µM | SF-539 > 100 µM | IGROV-1 > 100 µM | MDA-N > 100 µM | BT-549 > 100 µM | UACC-62 35.4 µM | EKVX 67.6 µM | NCI-H226 > 100 µM | OVCAR-5 > 100 µM | U-251 72.9 µM | MCF7 67.5 µM | HOP-92 > 100 µM | CAKI-1 > 100 µM | LOX IMVI > 100 µM | M14 > 100 µM | SW-620 > 100 µM | NCI-H460 65.5 µM | UACC-257 > 100 µM | MOLT-4 > 100 µM | NCI/ADR-RES > 100 µM

CCOc1cc2c(cc1O)CC[C@@H]1[C@@H]2CC[C@]2(C)[C@@H](O)CC[C@@H]12
active: OVCAR-8 0.109 µM | MDA-MB-435 0.0112 µM | RXF 393 0.0387 µM | SR < 0.0192 µM | SF-268 0.0612 µM | OVCAR-3 0.0184 µM | UO-31 0.256 µM | RPMI-8226 0.0252 µM | SK-OV-3 0.138 µM | DU-145 0.0547 µM | SK-MEL-2 0.118 µM | SN12C 0.0778 µM | NCI-H522 < 0.0117 µM | SNB-19 0.0334 µM | SK-MEL-5 0.0188 µM | HOP-62 0.0447 µM | SF-295 0.138 µM | SK-MEL-28 0.443 µM | CCRF-CEM 0.0274 µM | A549 0.0378 µM | K562 < 0.0171 µM | 786-0 0.0301 µM | NCI-H23 0.0667 µM | Hs-578T 0.0306 µM | MDA-MB-231 0.188 µM | SNB-75 0.0168 µM | HL-60 0.014 µM | HCC 2998 0.532 µM | ACHN 0.0123 µM | HCT-116 0.0234 µM | SF-539 0.0158 µM | MDA-N 0.0107 µM | BT-549 0.0125 µM | UACC-62 0.019 µM | EKVX 0.497 µM | NCI-H226 0.423 µM | U-251 0.0803 µM | MCF7 0.0287 µM | HOP-92 0.0537 µM | CAKI-1 0.0644 µM | LOX IMVI 0.0179 µM | M14 0.0261 µM | SW-620 0.0183 µM | NCI-H460 0.0228 µM | UACC-257 < 0.01 µM | MOLT-4 0.0401 µM | NCI/ADR-RES 0.0173 µM
< 0.0138 µM: HCT-15
inactive: COLO 205 12.7 µM | OVCAR-4 12.4 µM | A498 2.09 µM | HT-29 4.88 µM | PC-3 1.62 µM | KM12 1.22 µM | IGROV-1 1.18 µM | OVCAR-5 10.8 µM

— ChEMBL document CHEMBL1201862, “PubChem BioAssay data set” (2004)
